In US20100150938A1, “METHODS AND COMPOSITIONS FOR REDUCING INFLAMMATION AND TREATING INFLAMMATORY DISORDERS” (UNIVERSITY OF MASSACHUSETTS, priority 2008, published 2010):

Experiments:
[1] = system: mouse macrophages; assay: IL-1β release from LPS-primed mouse macrophages (bone marrow-derived, B6-MCLs), ELISA; format: cell-based; settings: LPS-primed bone marrow-derived macrophages of wild type mice, Aβ 1, 5 and 10 μM
Protocol: (§1) Bone marrow derived macrophages were generated as described (Severa, M et al. Journal of Biological Chemistry 281:26188-26195 (2006)). Human PBMCs were isolated by from whole blood of healthy volunteers by density gradient centrifugation. Lysis of red blood cells was performed using red blood cell lysis buffer (Sigma). Experiments in PBMCs and macrophages were carried out at a cell density of 2×10^6 cells/ml. All primary cells and cell lines except THP-1 cells were cultured in DMEM supplemented with L-glutamine, ciprofloxacin (Cellgro, Manassas, Va.) and 10% fetal calf serum (Hyclone, Logan, Utah). THP-1 cells were cultured in RPMI supplemented with 10% fetal calf serum (Hyclone), L-glutamine, sodium pyruvate (Cellgro), and ciprofloxacin. One day prior to stimulation, THP-1 cells were differentiated using 0.5 μM PMA for three hours, washed three times and plated for stimulation. All experiments that were performed for Western blot analysis were carried out in serum free DMEM medium. ATP stimulations were carried out at 5 mM one hour prior to harvesting supernatants.
Immortalized macrophage cell lines were generated using the previously described J2 recombinant retrovirus (carrying v-myc and v-raf/mil oncogenes) (Roberson, S. M. & Walker, W. S. Cellular immunology 116:341-351 (1988)). Briefly, primary bone marrow cells were incubated in L929 conditioned medium for 3-4 days to induce macrophage differentiation. Subsequently, cells were infected with J2 recombinant retrovirus. Cells were maintained in culture for 3-6 months slowly weaning off the percentage of L929 supernatant until cells were growing in the absence of conditioned medium.
Macrophage phenotype was verified by surface marker expression for CD11b and F480 as well as a range of functional parameters, including responsiveness to TLR ligands and bacterial uptake. Macrophage cell lines from wild-type (C57BL6), NALP3- and ASC-deficient mice were generated and are referred to as B6-MCLs, NALP3 -MCLs and ASC-MCLs.
Cell culture supernatants were assayed for IL-1β using ELISA kits from BD Biosciences (Franklin Lakes, NJ) according to the manufacturer's instructions. To measure intracellular IL-1β, cells were washed and subjected to three freeze thaw cycles in assay diluent.
Stimulations were carried out in serum free DMEM medium. Microglial cells and macrophages were primed with 100 U/ml IFNγ (Griess assay, TNF ELISA, real-time quantitative PCR) or 100 ng/ml ultrapure LPS (IL-1β ELISA, FLICA, ASC-CFP microglia cell line assay, Western blot) 1-3 h prior to stimulation with Aβ, revAβ, zymosan, ATP or transfection with dAdT.

[2] = system: caspase-1; assay: Caspase-1 cleavage/activation in mouse macrophages (Western blot p10); format: cell-based; settings: LPS-primed wild type bone marrow-derived macrophages, Aβ and reverse Aβ 10 μM
Protocol: as §1
Cell culture supernatants were precipitated by adding an equal volume of methanol and 0.25 volumes of chloroform, vortexed and centrifuged at 20.000×g for 10 min. The upper phase was discarded and 500 μl of methanol was added to the interphase. This mixture was centrifuged at 20.000×g for 10 min and the protein pellet dried at 55° C., resuspended in Laemmli buffer and boiled at 99° C. for 5 min. Samples were separated by SDS-PAGE (15%) and transferred onto nitrocellulose membranes. As indicated, blots were incubated with rabbit polyclonal antibody to anti murine caspase-1 p10 (sc-514, Santa Cruz Biotechnology, Santa Cruz, Calif.), rabbit polyclonal anti human caspase-1 p10 (sc-515, Santa Cruz Biotechnology), rabbit polyclonal anti human cleaved IL-1β (Asp116) (Cell Signaling, Boston, Mass.) or rabbit polyclonal anti murine cathepsin B (R&D Systems, Minneapolis, Minn.).
Cell culture supernatants were precipitated by adding an equal volume of methanol and 0.25 volumes of chloroform, vortexed and centrifuged at 20,000×g for 10 min. The upper phase was discarded and 500 μl of methanol was added to the interphase. This mixture was centrifuged at 20,000×g for 10 min and the protein pellet dried at 55° C., resuspended in Laemmli buffer and boiled at 99° C. for 5 min Samples were separated by SDS-PAGE (15%) and transferred onto nitrocellulose membranes. Blots were incubated with rabbit polyclonal antibody to anti murine caspase-1 p10 (sc-514, Santa Cruz Biotechnology, Santa Cruz, Calif.).

[3] = system: mice; assay: Stereotaxic brain microinjection, microglial recruitment (F4/80); format: in vivo, mouse; settings: wild type mice, 1 μl of 1 mg/ml into striatum, 48 h
Protocol: Injections were performed as described^27. Briefly, six week old mice (n=4 in each group) were anesthetized with ketamine (100 mg/kg i.p.; Webster) and xylazine (10 mg/kg i.p.; Webster), placed on a homoeothermic heating blanket (Harvard Apparatus) and immobilized in a stereotaxic frame (Stoelting). A linear skin incision was made under sterile conditions, and a small hole was created in the skull using a dental drill 1 mm anterior and 2 mm lateral to bregma over both hemispheres. 1 μl Aβ in sterile pyrogen-free saline (1 mg/ml) was inoculated on the left side, and the same amount of revAβ was inoculated on the right side, using separate Hamilton syringes. Mice were allowed to fully recover on a heating blanket. After 48 hours, the mice were anesthetized with ketamine/xylazine and transcardially perfused with 4% paraformaldehyde in PBS. Brains were removed, placed in 4% PFA overnight at 4° C., and then transferred to PBS and stored at 4° C. until sectioning. Coronal 60 μm sections were taken using a vibratome (Leica). […] To quantify the number of microglia recruited to sites of microinjection, serial sections from each site of injection were visualized by fluorescence microscopy (Nikon Eclipse E400) and digitally photographed. […] Fluorescence intensity of microglia immunoreactive for F4/80 at each injection site was quantified using ImageJ (NIH).

Aβ 1-42 peptide
IL-1β release induced by Aβ [1]: strong and dose-dependent IL-1β release | caspase-1 cleavage (p10) induced by the stimulus [2]: induced caspase-1 cleavage (p10) | microglia around the injection site (F4/80) [3]: strong recruitment and chemotaxis of microglia
